According to the NIST ThermoML archive (doi:10.1016/j.jct.2016.10.005):
± gives the expanded uncertainty stated by the source.

Test: excess molar enthalpy (molar enthalpy of mixing); xn = mol fraction of the nth substance listed
Conditions: 100 kPa, Liquid, Flow calorimetry

C1CCCCC1 [cyclohexane] + CCCO
excess molar enthalpy [kcal/mol]
Conditions | 298.15 K | 313.15 K
x1 = 0.0503 | 0.0217 ± 0.00239 | 0.0256 ± 0.00263
x1 = 0.1005 | 0.0413 ± 0.00263 | 0.0497 ± 0.00263
x1 = 0.1499 | 0.059 ± 0.00263 | 0.0717 ± 0.00263
x1 = 0.2005 | 0.0755 ± 0.00263 | 0.0927 ± 0.00263
x1 = 0.2498 | – | 0.112 ± 0.00263
x1 = 0.2499 | 0.0903 ± 0.00263 | –
x1 = 0.3004 | – | 0.129 ± 0.00263
x1 = 0.3005 | 0.104 ± 0.00263 | –
x1 = 0.3502 | – | 0.145 ± 0.00263
x1 = 0.3503 | 0.116 ± 0.00263 | –
x1 = 0.4001 | – | 0.159 ± 0.00287
x1 = 0.4003 | 0.127 ± 0.00263 | –
x1 = 0.45 | – | 0.171 ± 0.00287
x1 = 0.4501 | 0.136 ± 0.00263 | –
x1 = 0.4997 | – | 0.181 ± 0.00287
x1 = 0.4998 | 0.143 ± 0.00263 | –
x1 = 0.5502 | – | 0.189 ± 0.00287
x1 = 0.5504 | 0.149 ± 0.00263 | –
x1 = 0.6006 | 0.152 ± 0.00263 | 0.194 ± 0.00287
x1 = 0.6503 | 0.153 ± 0.00263 | 0.196 ± 0.00287
x1 = 0.6994 | – | 0.194 ± 0.00287
x1 = 0.6995 | 0.152 ± 0.00263 | –
x1 = 0.7503 | – | 0.189 ± 0.00287
x1 = 0.8005 | 0.139 ± 0.00263 | 0.179 ± 0.00287
x1 = 0.8497 | 0.127 ± 0.00263 | 0.165 ± 0.00287
x1 = 0.9005 | 0.109 ± 0.00263 | 0.143 ± 0.00287
x1 = 0.9502 | 0.0827 ± 0.00263 | 0.11 ± 0.00287

CC1CCCCC1 [methylcyclohexane] + CCCO
excess molar enthalpy [kcal/mol]
Conditions | 298.15 K | 313.15 K
x1 = 0.0498 | 0.0179 ± 0.00239 | 0.0239 ± 0.00263
x1 = 0.1005 | 0.0344 ± 0.00239 | 0.0466 ± 0.00263
x1 = 0.1504 | 0.0495 ± 0.00239 | –
x1 = 0.1505 | – | 0.0676 ± 0.00263
x1 = 0.2 | 0.0633 ± 0.00263 | 0.0872 ± 0.00263
x1 = 0.2504 | 0.0767 ± 0.00263 | 0.106 ± 0.00263
x1 = 0.3005 | 0.0889 ± 0.00263 | 0.123 ± 0.00263
x1 = 0.3501 | 0.1 ± 0.00263 | –
x1 = 0.3502 | – | 0.139 ± 0.00263
x1 = 0.3998 | 0.11 ± 0.00263 | 0.153 ± 0.00287
x1 = 0.4503 | 0.12 ± 0.00263 | 0.166 ± 0.00287
x1 = 0.5004 | 0.127 ± 0.00263 | –
x1 = 0.5005 | – | 0.177 ± 0.00287
x1 = 0.55 | 0.134 ± 0.00263 | 0.187 ± 0.00287
x1 = 0.5998 | 0.138 ± 0.00263 | –
x1 = 0.5999 | – | 0.191 ± 0.00287
x1 = 0.6497 | 0.14 ± 0.00263 | 0.194 ± 0.00287
x1 = 0.6995 | 0.14 ± 0.00263 | 0.193 ± 0.00287
x1 = 0.7505 | 0.137 ± 0.00263 | 0.189 ± 0.00287
x1 = 0.7996 | 0.131 ± 0.00263 | 0.181 ± 0.00287
x1 = 0.8495 | 0.121 ± 0.00263 | 0.168 ± 0.00287
x1 = 0.9002 | 0.107 ± 0.00263 | 0.148 ± 0.00287
x1 = 0.9499 | – | 0.116 ± 0.00287
